Test system: vancomycin-resistant enterococcus (VRE VanA)
Assay: In vitro assay of antimicrobial activity: MIC by the microdilution method using cation adjusted Mueller-Hinton broth
Type: cell-based
Method: In Vitro Assay of Antimicrobial Activity
For several compounds of the invention, minimal inhibitory concentration (MIC) was determined by the microdilution method using cation adjusted Mueller-Hinton broth well known in the art.

[1] = E. faecalis SR7914 (VRE: Van A)

Row | minimal inhibitory concentration (MIC) [1] | minimal inhibitory concentration (MIC) (E. faecium SR7917 (VRE: Van A)) | SMILES
1 | 2 | 2 | CNC(CC(C)C)C(=O)NC1C(=O)N[C@@H](CC(N)=O)C(=O)N[C@H]2C(=O)N[C@H]3C(=O)N[C@H](C(=O)N[C@@H](C(=O)O)c4cc(O)cc(O)c4-c4cc3ccc4O)C(O)c3ccc(c(Cl)c3)Oc3cc2cc(c3OC2OC(CO)[C@H](O)C(O)[C@H]2O[C@@H]2CC(C)(NCc3cccc(NC(=O)c4ccc(C)c(OCc5ccccc5)c4[N+](=O)[O-])c3)[C@@H](O)C(C)O2)Oc2ccc(cc2Cl)[C@H]1O (stereo partly drawn) [Compound 10]
2 | 4 | 4 | CNC(CC(C)C)C(=O)NC1C(=O)N[C@@H](CC(N)=O)C(=O)N[C@H]2C(=O)N[C@H]3C(=O)N[C@H](C(=O)N[C@@H](C(=O)O)c4cc(O)cc(O)c4-c4cc3ccc4O)C(O)c3ccc(c(Cl)c3)Oc3cc2cc(c3OC2OC(CO)[C@H](O)C(O)[C@H]2O[C@@H]2CC(C)(NCc3ccc(OCCCNC(=O)c4ccc(C)c(OCc5ccccc5)c4[N+](=O)[O-])cc3)[C@@H](O)C(C)O2)Oc2ccc(cc2Cl)[C@H]1O (stereo partly drawn) [Compound 16]

Row | SMILES | minimal inhibitory concentration (MIC) [1] | minimal inhibitory concentration (MIC) (E. faecium SR7917 (VRE: Van A))
3 | CN[C@H](CC(C)C)C(=O)N[C@H]1C(=O)N[C@@H](CC(N)=O)C(=O)N[C@H]2C(=O)N[C@H]3C(=O)N[C@H](C(=O)N[C@H](C(=O)O)c4cc(O)cc(O)c4-c4cc3ccc4O)[C@H](O)c3ccc(c(Cl)c3)Oc3cc2cc(c3O[C@@H]2O[C@H](CO)[C@@H](O)[C@H](O)[C@H]2O[C@H]2C[C@](C)(N)[C@H](O)[C@H](C)O2)Oc2ccc(cc2Cl)[C@H]1O [VCM, vancomycin, reference compound] | >64 | >64

— patent US8778874B2, “Glycopeptide antibiotic monomer derivatives” (priority 2004, dated 2014)
